Reference: US10214546B2, “Btk inhibitors” (MERCK SHARP & DOHME CORP., priority 2014, dated 2019)
pIC50: −log10 of the molar value. Where two headings read alike, the source gives them in different places.

Legend:
[1] = biological target: BTK enzyme (recombinant full-length BTK, hBTK) (Homo sapiens (Human), UniProt Q06187); assay: BTK enzymatic activity LANCE TR-FRET assay; format: biochemical; details: 50 pM hBTK, 25 μM ATP, 2 μM biotin-A5-peptide; compound range 1 μM to 0.017 nM; read-out: BTK binding IC50
Procedure: Btk Enzyme Activity Assay Methods
BTK enzymatic activity was determined with the LANCE (Lanthanide Chelate Excite) TR-FRET (Time-resolved fluorescence resonance energy transfer) assay. […] Phosphorylation reactions were allowed to proceed for 120 minutes. […] After 60 minutes incubation with detection reagents, reaction plates were read on a PerkinElmer EnVision plate reader using standard TR-FRET protocol. […] IC50 values were determined by 4 parameter robust fit of TR-FRET ratio values vs. (Log10) compound concentrations.

[2] = test system: adenosine uptake into HeLa cells; assay: [3H]Adenosine uptake assay in HeLa cells; format: cell-based; details: [3H]adenosine accumulation in HeLa cells, compound range 10 μM to 0.032 nM, read-out: ADU inhibition IC50
Procedure: Compounds are also screened in an adenosine uptake functional cellular assay using the protocol described below:
[^3H]Adenosine Uptake Assay Methods
Adenosine uptake activity was determined by monitoring the accumulation of tritiated adenosine into HeLa cells (ATCC catalog # CCL-2) using a PMT-based radiometric detection instrument. In this assay, the potency (IC50) of each compound was determined from a ten point (1:3 serial dilution; final compound concentration range in assay from 10 µM to […]) titration curve using the following outlined procedure. To each well of a 96-well CytoStar-T scintillating microplate (Perkin Elmer Catalog # RPNQ0163), 25 000 HeLa cells in 100 µL of growth medium comprising: Minimum Essential Media (Life Technologies Catalog #11095-080)+10% (v/v) foetal bovine serum (FBS; Sigma Aldrich Catalog # F2442) was added. These cells were incubated overnight at 37° C. in a humidified atmosphere with 5% (v/v) CO2. After this time the growth medium was removed and replaced with 40 μL assay medium comprising: Hanks balanced salts solution (HBSS; Thermo Fisher Catalog # SH30268.01)+5% (v/v) FBS. Compound stock solutions in DMSO were diluted in assay medium to 2.5× final compound concentration maintaining a constant DMSO concentration of 0.25% (v/v). 40 μL of compound in assay medium was dispensed into individual wells of the Cytostar-T plates and the plates were incubated for 30 minutes under ambient laboratory conditions. Following this incubation, 20 μL of 500 nM [^3H] adenosine (American Radiolabeled Chemicals Inc. […] The amount of radiolabel accumulation was then determined using a Perkin Elmer Topcount NXT microplate reader. In brief, HeLa cells adhere to the bottom of the Cytostar-T plate, uptake of [^3H]adenosine into these cells brings the radiolabel into sufficient proximity to excite the scintillant in the base of the plates. These events are captured by single PMT, time-resolved coincidence counting. IC50 values were determined by 4 parameter robust fit of counts per second values vs. (Log10) compound concentrations.

Sequence of BTK enzyme (recombinant full-length BTK, hBTK) (Q06187 whole entry): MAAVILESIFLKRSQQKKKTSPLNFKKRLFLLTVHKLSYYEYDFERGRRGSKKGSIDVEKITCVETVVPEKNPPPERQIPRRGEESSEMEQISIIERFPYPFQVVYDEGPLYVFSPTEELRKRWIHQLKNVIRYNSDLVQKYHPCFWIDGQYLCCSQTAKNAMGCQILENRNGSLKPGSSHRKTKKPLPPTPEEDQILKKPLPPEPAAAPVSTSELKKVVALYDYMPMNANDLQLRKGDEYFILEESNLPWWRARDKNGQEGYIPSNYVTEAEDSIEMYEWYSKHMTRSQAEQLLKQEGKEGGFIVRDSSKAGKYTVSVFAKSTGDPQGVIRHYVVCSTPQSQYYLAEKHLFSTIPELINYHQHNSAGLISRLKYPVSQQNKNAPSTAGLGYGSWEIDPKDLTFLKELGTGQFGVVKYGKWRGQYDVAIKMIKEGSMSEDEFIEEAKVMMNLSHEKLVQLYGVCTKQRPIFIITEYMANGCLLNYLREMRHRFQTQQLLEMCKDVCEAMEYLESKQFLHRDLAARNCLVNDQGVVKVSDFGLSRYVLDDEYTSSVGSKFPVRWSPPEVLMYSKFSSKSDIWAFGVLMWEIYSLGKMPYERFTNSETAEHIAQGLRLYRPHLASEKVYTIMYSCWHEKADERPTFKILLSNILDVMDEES

pIC50 [1]	pIC50 ([2]; Homo sapiens, HeLa)	pIC50 [2]	Structure (SMILES)
6.44	5.00		CC(O)(c1ccc(-c2nc([C@@H]3CC[C@H]4CCC(=O)N4C3)n3ccnc(N)c23)cc1)c1cccnc1 (stereo partly drawn) [Example 18, (6R,8aS)-6-{8-amino-1-[4-(1-hydroxy-1-pyridin-3-ylethyl)phenyl]imidazo[1,5-a]pyrazin-3-yl}hexahydroindolizin-3(2H)-one]
6.77	5.63		CC(O)(c1ccc(F)cc1)c1ccc(-c2nc([C@@H]3CC[C@H]4CCC(=O)N4C3)n3ccnc(N)c23)cc1 (stereo partly drawn) [Example 19, (6R,8aS)-6-(8-amino-1-{4-(1-(4-fluorophenyl)-1-hydroxyethyl]phenyl}imidazo[1,5-a]pyrazin-3-yl)hexahydroindolizin-3(2H)-one]
6.64	5.59		C[C@](O)(c1cccc(C(F)(F)F)c1)c1ccc(-c2nc([C@@H]3CC[C@H]4CCC(=O)N4C3)n3ccnc(N)c23)c(CO)c1 [Example 20, (6R,8aS)-6-(8-amino-1-(4-((R)-1-hydroxy-1-(3-(trifluoromethyl)phenyl)ethyl)-2-(hydroxymethyl)phenyl)imidazo[1,5-a]pyrazin-3-yl)hexahydroindolizin-3(2H)-one]
8.24	5.13		C[C@@](O)(c1cccc(C(F)(F)F)c1)c1ccc(-c2nc([C@@H]3CC[C@H]4CCC(=O)N4C3)n3ccnc(N)c23)c(CO)c1 [Example 21, (6R,8aS)-6-(8-amino-1-(4-((S)-1-hydroxy-1-(3-(trifluoromethyl)phenyl)ethyl)-2-(hydroxymethyl)phenyl)imidazo[1,5-a]pyrazin-3-yl)hexahydroindolizin-3(2H)-one]
8.77	5.42		CCOc1cc(C(C)(O)c2cccc(C(F)(F)F)c2)cc(F)c1-c1nc([C@@H]2CC[C@H]3CCC(=O)N3C2)n2ccnc(N)c12 (stereo partly drawn) [Example 22, (6R,8aS)-6-(8-amino-1-(2-ethoxy-6-fluoro-4-(1-hydroxy-1-(3-(trifluoromethyl)phenyl)ethyl)phenyl)imidazo[1,5-a]pyrazin-3-yl)hexahydroindolizin-3(2H)-one]
8.28	5.60		CC(O)(c1ccccc1)c1ccc(-c2nc([C@@H]3CC[C@H]4CCC(=O)N4C3)n3ccnc(N)c23)c(F)c1 (stereo partly drawn) [Example 24]
8.74	5.42		Nc1nccn2c([C@@H]3CC[C@H]4CCC(=O)N4C3)nc(-c3ccc([C@](O)(c4ccccc4)C(F)(F)F)cc3)c12 [Example 25, (6R,8aS)-6-(8-amino-1-{4-[(1R)-2,2,2-trifluoro-1-hydroxy-1-phenylethyl]phenyl}imidazo[1,5-a]pyrazin-3-yl)hexahydroindolizin-3(2H)-one]
6.81	5.58		Nc1nccn2c([C@@H]3CC[C@H]4CCC(=O)N4C3)nc(-c3ccc([C@@](O)(c4ccccc4)C(F)(F)F)cc3)c12 [Example 26, (6R,8aS)-6-(8-amino-1-{4-[(1S)-2,2,2-trifluoro-1-hydroxy-1-phenylethyl]phenyl}imidazo[1,5-a]pyrazin-3-yl)hexahydroindolizin-3(2H)-one]
8.01	5.91		Nc1nccn2c([C@@H]3CC[C@H]4CCC(=O)N4C3)nc(-c3ccc(C(O)(c4cccc(C(F)(F)F)c4)C(F)(F)F)cc3)c12 (stereo partly drawn) [Example 27, (6R,8aS)-6-[8-amino-1-(4-{2,2,2-trifluoro-1-hydroxy-1-[3-(trifluoromethyl)phenyl]ethyl}phenyl)imidazo [1,5-a]pyrazin-3-yl]hexahydroindolizin-3(2H)-one]
8.16	5.70		Nc1nccn2c([C@@H]3CC[C@H]4CCC(=O)N4C3)nc(-c3ccc(C(O)(c4cccc(F)c4)C(F)(F)F)cc3)c12 (stereo partly drawn) [Example 29, (6R,8aS)-6-(8-amino-1-{4-[2,2,2-trifluoro-1-(3-fluorophenyl)-1-hydroxyethyl]phenyl}imidazo[1,5-a]pyrazin-3-yl)hexahydroindolizin-3(2H)-one]
8.55	5.88		Nc1nccn2c([C@@H]3CC[C@H]4CCC(=O)N4C3)nc(-c3ccc(C(O)(c4ccccc4)C(F)(F)F)cc3F)c12 (stereo partly drawn) [Example 30, (6R,8aS)-6-{8-amino-1-[2-fluoro-4-(2,2,2-trifluoro-1-hydroxy-1-phenylethyl)phenyl)imidazo[1,5-a]pyrazin-3-yl}hexahydroindolizin-3(2H)-one]
7.11	5.32		CC(O)(c1ccc(-c2nc([C@@H]3CC[C@H]4CCC(=O)N4C3)n3ccnc(N)c23)cc1)c1ccccc1C(F)(F)F (stereo partly drawn) [Example 31, (6R,8aS)-6-[8-amino-1-(4-{1-hydroxy-1-[2-(trifluoromethyl)phenyl]ethyl}phenyl)imidazo [1,5-a]pyrazin-3-yl]hexahydroindolizin-3(2H)-one]

The remaining lines, values behind:

Structure (SMILES)	pIC50 [1]	pIC50 ([2]; Homo sapiens, HeLa)	pIC50 [2]
CC1(C)C[C@@H]2CC[C@@H](c3nc(-c4ccc([C@@](C)(O)c5cccc(C(F)(F)F)c5)cc4)c4c(N)nccn34)CN2C1=O [Example 7, (6R,8aS)-6-(8-amino-1-(4-((R)-1-hydroxy-1-(3-(trifluoromethyl)phenyl)ethyl)phenyl)imidazo[1,5-a]pyrazin-3-yl)-2,2-dimethylhexahydroindolizin-3(2H)-one]	9.09	5.55	
CC1OC(=O)N2C[C@H](c3nc(-c4ccc([C@@](C)(O)c5cccc(C(F)(F)F)c5)cc4)c4c(N)nccn34)OC[C@@H]12 (stereo partly drawn) [Example 8, (6R,8aS)-6-(8-amino-1-(4-((R)-1-hydroxy-1-(3-(trifluoromethyl)phenyl)ethyl)phenyl)imidazo[1,5-a]pyrazin-3-yl)-1-methyltetrahydrooxazolo[4,3-c][14]oxazin-3(1H)-one]	7.69		5.29
C[C@@H]1OC(=O)N2C[C@H](c3nc(-c4ccc([C@@](C)(O)c5cccc(C(F)(F)F)c5)cc4)c4c(N)nccn34)OC[C@@H]12 [Example 9, (6R,8aS)-6-(8-amino-1-(4-((R)-1-hydroxy-1-(3-(trifluoromethyl)phenyl)ethyl)phenyl)imidazo[1,5-a]pyrazin-3-yl)-1-methyltetrahydrooxazolo[4,3-c][1,4]oxazin-3(1H)-one]	7.89	5.26	
Nc1nccn2c([C@@H]3CC[C@H]4CCC(=O)N4C3)nc(-c3ccc(C(O)(c4ccccc4)C(F)(F)F)cc3)c12 (stereo partly drawn) [Example 12, (6R,8aS)-6-(8-amino-1-(4-(2,2,2-trifluoro-1-hydroxy-1-phenethyl)phenyl)imidazo[1,5-a]pyrazin-3-yl)hexahydroindolizin-3(2H)-one]	8.47	5.91	
CC(O)(c1ccc(-c2nc([C@@H]3CC[C@H]4CCC(=O)N4C3)n3ccnc(N)c23)cc1)c1cccc(C(F)(F)F)c1 (stereo partly drawn) [Example 13, (6R,8aS)-6-(8-amino-1-(4-(1-hydroxy-1-(3-(trifluoromethyl)phenyl)ethyl)phenyl)imidazo[1,5-a]pyrazin-3-yl)hexahydroindolizin-3(2H)-one]	8.77	6.06	
CC(C)C(C)(O)c1ccc(-c2nc([C@@H]3CC[C@H]4CCC(=O)N4C3)n3ccnc(N)c23)cc1 (stereo partly drawn) [Example 14, (6R,8aS)-6-{8-amino-1-[4-(1-hydroxy-1,2-dimethylpropyl)phenyl]imidazo[1,5-a]pyrazin-3-yl}hexahydroindolizin-3(2H)-one]	6.59	5.16	
CC(O)(c1ccc(-c2nc([C@@H]3CC[C@H]4CCC(=O)N4C3)n3ccnc(N)c23)cc1)c1ccc(C(F)(F)F)cc1 (stereo partly drawn) [Example 15, (6R,8aS)-6-[8-amino-1-(4-{1-hydroxy-1-[4-(trifluoromethyl)phenyl]ethyl}phenyl)imidazo[1,5-a]pyrazin-3-yl]hexahydroindolizin-3(2H)-one]	6.41	5.75	
CC(O)(c1ccc(-c2nc([C@@H]3CC[C@H]4CCC(=O)N4C3)n3ccnc(N)c23)cc1)c1cccc(F)c1 (stereo partly drawn) [Example 16, (6R,8aS)-6-(8-amino-1-{4-[1-(3-fluorophenyl)-1-hydroxyethyl]phenyl}imidazo[1,5-a]pyrazin-3-yl)hexahydroindolizin-3(2H)-one]	8.14	5.61	
CC(O)(c1ccc(-c2nc([C@@H]3CC[C@H]4CCC(=O)N4C3)n3ccnc(N)c23)cc1)c1ccccn1 (stereo partly drawn) [Example 17, (6R,8aS)-6-{8-amino-1-[4-(1-hydroxy-1-pyridin-2-ylethyl)phenyl]imidazo[1,5-a]pyrazin-3-yl}hexahydroindolizin-3(2H)-one]	6.49	5.24	
